Measured values as given in patent US12060408B2, “Screening assays, modulators and modulation of activation of Receptor for Advanced Glycation End-products (RAGE)” (Monash University, priority 2017, dated 2024).
Ends that are not written are not given here.

Tests used:
[1] = system: RAGE ligand-independent activation of RAGE by activated AT1R; experiment: Ang II-induced NFκB activation (p65 gene expression, SEAP reporter) in AT1R-CHO cells with RAGE constructs; type: cell-based, human; conditions: summary statement, cell system not given
Protocol: (§1) Generation of Transgenic Chinese Hamster Ovary Cells
(§2) 100 ng of AT1R-Rluc8 construct was transfected into CHO cells using Lipofectamine 2000 (Thermo). Stable transfectants were selected using G418. AT1R—CHO were then transiently transfected with RAGE constructs using Lipofectamine 2000 (Invitrogen) and incubated for 16 h. The Homo sapiens AGER transcript variant 1 coding sequence (NM_001136) was synthesised and cloned between the NheI and XbaI sites of pCIneo (Promega) to generate the vector pCIneo-RAGE. This plasmid was then used to generate a library of mutant AGER clones (NP_001127). Primers 1-RAGE-SP-5′ and mCherry-XhoI-NotI-3′ were used to amplify the coding sequence of mCherry from the vector pmCherry-C1. The resultant PCR product was then used as template for a second PCR using primers 2-RAGE-SP-5′ and mCherry-XhoI-NotI-3′. The PCR product generated was digested with NheI and NotI and inserted between the NheI and NotI sites of pCIneo to generate pCIneo-SP-mCherry. The sequence of the insert was confirmed by DNA sequencing (Micromon, Monash University). […]
(§3) Cellular Expression of Pro-Inflammatory Markers and Mediators by Quantitative Real-Time PCR
(§4) After 2 hours of exposure to Ang II (1 μM) or the RAGE ligand, S100A8/A9 (5 ng/ml) cells were placed in Trizol, mRNA extracted and cDNA synthesized. Changes in the gene expression of the NFκB subunit, p65 (RelA) or NFκB-activated target genes (e.g ICAM-1, VCAM-1) were estimated by quantitative real-time RT-PCR, performed using the TaqMan system based on real-time detection of accumulated fluorescence (ABI Prism 7700, Perkin-Elmer Inc, PE Biosystems, Foster City, CA, USA). Gene expression was normalized to 18S mRNA and reported as fold change compared to the level of expression in untreated control mice/cells, which were given an arbitrary value of 1.
Oligopeptides (Cherry-TAT (control), mCherry-TAT-RAGE362-404 and mCherry-S391A-TAT-RAGE362-404 were generated by transformation of the Escherichia coli strain ClearColi BL21 (DE3; Lucigen). A single transformed colony was inoculated into 50 ml 2YT medium containing 100 μg/ml ampicillin and the culture was grown overnight at 37° C. with shaking at 250 rev/min. 10 ml overnight culture was used to inoculate 1 litre 2YT medium containing 100 μg/ml ampicillin and the culture was grown at 37° C. with shaking at 250 rev/min. When the cultures reached an OD600 of 0.8, the temperature was shifted to 15° C. for 30 min after which protein expression was induced by the addition of 1 mM isopropyl β-D-1-thiogalacto-pyranoside (IPTG). Following the addition of IPTG the cultures were grown for ˜16 h at 15° C. with shaking at 250 rev/min. Cells were harvested by centrifugation (3500 g, 4° C., 20 min) and resuspended in ice-cold lysis buffer (50 mM Tris pH 7.4, 300 mM NaCl, 10 mM imidazole and 5 mM beta-mercaptoethanol). The resuspended cells were sonicated and insoluble material was pelleted by centrifugation (13 000 g, 4° C., 30 min). The supernatant was filtered (0.2 μm) and applied onto a gravity-flow column with a 1 ml Ni-NTA Agarose resin bed volume (Qiagen) pre-equilibrated with lysis buffer. After the supernatant was passed over the resin, the column was washed with 100 ml of wash buffer (20 mM imidazole, 50 mM Tris pH 7.4, 150 mM NaCl, 5 mM beta-mercaptoethanol). His-tagged TAT-mCherry and TAT-mCherry-RAGE peptides were eluted from the resin using elution buffer (250 mM imidazole, 50 mM Tris pH 7.4, 150 mM NaCl, 5 mM beta-mercaptoethanol). […]

[2] = system: RAGE ligand-dependent activation of RAGE; experiment: S100A8/A9-induced NFκB activation (p65 gene expression) in CHO cells expressing RAGE constructs; type: cell-based, human; conditions: summary statement, cell system not given
Protocol: as §1, §2, §3, §4
To measure the induction of NFκB activity by 1 μM Ang II, or 5 ng/ml of the RAGE-ligand S100A8/A9 as a signalling control, AT1R—CHO cells were transfected with 0.4 μg of plasmids encoding NFκB-SEAP or β-galactosidase (β-Gal) using Lipofectamine 2000 (Invitrogen) as per manufacturer's instructions. After 24 hours, cells transfected with each plasmid combination were then treated with Ang II (1 μM) or left untreated and incubated for 4 hours before cell supernatants and cell lysates were collected. Cell supernatants were analysed using a chemiluminescent SEAP reporter gene assay (Roche Applied Science) to detect SEAP production after treatment. To control for transfection efficiency, cell lysates were assayed for β-Gal using a commercially available kit (Promega).

murine SVEC = experiment: Induction of ICAM-1 by Ang II in murine SVEC transfected with RAGE constructs (RT-PCR); type: cell-based, mouse; conditions: transfected construct (FIG. 12)
Description: FIG. 12A. The effect of transfection of murine SVEC with RAGE or RAGE mutants on the induction of ICAM-1 by Ang II compared to vector alone (pc-Neo) as a control, as measured by RT-PCR. Data are mean±SEM; n=6-8 per group. * vs untreated control, # vs neo+Ang II, p<0.05.
FIG. 12B. The effect of transfection with truncated RAGE mutants on the induction of ICAM-1 by Ang II in murine SVEC to identify the smallest fragments with inhibitory activity. Data are mean±SEM; n=6-8 per group, * vs no treatment control, p<0.05.
FIG. 12D. The effect of transfection with single site-specific alanine or lysine mutants of RAGE370-390 on the induction of ICAM-1 by Ang II in murine SVEC. Data are mean±SEM; n=6-8 per group, * vs no treatment control, p<0.05.
as §3
as §4, with “Gene expression was normalized to 18S mRNA and reported as fold change compared to the level of expression in untreated control mice/cells, which were given an arbitrary value of 1.” left out

CCR2 [3] = molecular target: T1, CCR2 (Mus musculus, UniProt P51683); conditions: mouse models of multiple sclerosis, renal ischemia-reperfusion injury, ureteric obstruction, diabetic nephropathy; rat model of arthritis; cited from earlier work
T1 construct: host or cells: mouse models (and one rat model) in vivo
T1 sequence (P51683 whole entry, the tested form may be a part): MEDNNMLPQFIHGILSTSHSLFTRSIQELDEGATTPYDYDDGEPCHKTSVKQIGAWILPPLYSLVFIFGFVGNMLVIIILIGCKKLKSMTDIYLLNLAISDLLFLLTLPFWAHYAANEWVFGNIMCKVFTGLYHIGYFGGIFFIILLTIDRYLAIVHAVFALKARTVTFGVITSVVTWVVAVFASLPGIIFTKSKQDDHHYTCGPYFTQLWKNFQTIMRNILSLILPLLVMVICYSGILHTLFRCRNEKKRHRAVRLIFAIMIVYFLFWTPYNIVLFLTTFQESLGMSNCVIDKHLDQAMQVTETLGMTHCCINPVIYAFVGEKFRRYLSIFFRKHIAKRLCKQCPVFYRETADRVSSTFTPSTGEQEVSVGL

TRH receptor 1 (TRHR1) = experiment: Receptor-HIT BRET, β-arrestin2/Venus with RAGE/Rluc8 and TRH receptor 1; type: cell-based
Description: (§5) Bioluminescence Resonance Energy Transfer (BRET)
(§6) BRET is an established technology for studying protein-protein proximity in live cells, particularly involving GPCRs (Pfleger and Eidne, 2006). One protein of interest was linked to a bioluminescent donor enzyme, Rluc8, a variant of Renilla luciferase, and a second linked to an acceptor fluorophore, Venus, a variant of green fluorescent protein. If in close proximity (<10 nm), energy resulting from the rapid oxidation of a cell-permeable coelenterazine substrate by the donor can transfer to the acceptor, which in turn fluoresces at a longer characteristic wavelength.
(§7) Plasmids were transiently co-expressed in human embryonic kidney (HEK) 293FT cells and BRET measurements taken at 37° C. using a POLARstar Omega or LUMIstar plate reader (BMG Labtech, Mornington, Victoria, Australia) with 460-490 nm (‘donor emission’) and 520-550 nm (‘acceptor emission’) filters, or a VICTOR Light plate reader (Perkin Elmer, Glen Waverley, Victoria, Australia) with 400-475 nm (‘donor emission’) and 520-540 nm (‘acceptor emission’) filters, or a CLARIOstar plate reader (BMG Labtech, Mornington, Victoria, Australia) with 420-480 nm (‘donor emission’) and 520-620 nm (‘acceptor emission’) filters. […]
(§8) For BRET kinetic assays, the final pre-treatment reading is presented at the zero time point (time of ligand/vehicle addition). […]

orexin receptor 1 (OxR1) = molecular target: T2, orexin receptor 1 (OxR1) (Homo sapiens, UniProt O43613); experiment: Receptor-HIT BRET, β-arrestin2/Venus with RAGE/Rluc8 and orexin receptor 1; type: cell-based
T2 construct: expressed in transfected cells; host or cells: HEK293FT, transient
T2 sequence (O43613 whole entry): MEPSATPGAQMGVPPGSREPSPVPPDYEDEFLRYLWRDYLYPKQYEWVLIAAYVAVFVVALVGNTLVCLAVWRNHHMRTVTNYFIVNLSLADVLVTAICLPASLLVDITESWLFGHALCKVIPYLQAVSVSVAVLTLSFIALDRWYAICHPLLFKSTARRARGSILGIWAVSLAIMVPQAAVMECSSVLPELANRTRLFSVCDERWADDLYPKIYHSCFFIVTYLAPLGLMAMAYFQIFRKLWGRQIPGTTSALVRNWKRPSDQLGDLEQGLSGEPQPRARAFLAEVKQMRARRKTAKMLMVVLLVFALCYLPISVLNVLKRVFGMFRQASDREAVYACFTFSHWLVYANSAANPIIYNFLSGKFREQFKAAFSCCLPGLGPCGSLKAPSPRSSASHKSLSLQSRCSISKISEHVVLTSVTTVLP
T2 sequence (P32121 whole entry partner): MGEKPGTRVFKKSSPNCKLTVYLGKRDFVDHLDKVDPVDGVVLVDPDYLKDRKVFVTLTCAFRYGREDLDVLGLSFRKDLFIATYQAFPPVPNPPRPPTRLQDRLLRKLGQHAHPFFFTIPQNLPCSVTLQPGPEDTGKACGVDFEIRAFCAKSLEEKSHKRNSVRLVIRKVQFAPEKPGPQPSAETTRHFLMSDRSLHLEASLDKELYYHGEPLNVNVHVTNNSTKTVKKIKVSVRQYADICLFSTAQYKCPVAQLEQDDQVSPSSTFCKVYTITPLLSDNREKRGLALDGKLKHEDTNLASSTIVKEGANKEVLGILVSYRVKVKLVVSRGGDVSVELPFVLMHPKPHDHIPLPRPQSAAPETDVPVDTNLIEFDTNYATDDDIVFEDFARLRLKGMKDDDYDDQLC
Description: as §5, §6, §7, §8

RAGE = experiment: Ang II-induced pro-inflammatory signalling (p65-NFκB expression) in AT1R-CHO / RAGE-AT1R-CHO cells; type: cell-based, human; conditions: pre-treatment with mCherry-S391A-RAGE362-404 0.4 ng/ml; FIG. 10G
CCR2 [4] = molecular target: T3, CCR2 (Homo sapiens, UniProt P41597); experiment: Receptor-HIT BRET, β-arrestin2/Venus with RAGE/Rluc8 and CCR2; type: cell-based
T3 construct: expressed in transfected cells; host or cells: HEK293FT, transient
T3 sequence (P41597 whole entry): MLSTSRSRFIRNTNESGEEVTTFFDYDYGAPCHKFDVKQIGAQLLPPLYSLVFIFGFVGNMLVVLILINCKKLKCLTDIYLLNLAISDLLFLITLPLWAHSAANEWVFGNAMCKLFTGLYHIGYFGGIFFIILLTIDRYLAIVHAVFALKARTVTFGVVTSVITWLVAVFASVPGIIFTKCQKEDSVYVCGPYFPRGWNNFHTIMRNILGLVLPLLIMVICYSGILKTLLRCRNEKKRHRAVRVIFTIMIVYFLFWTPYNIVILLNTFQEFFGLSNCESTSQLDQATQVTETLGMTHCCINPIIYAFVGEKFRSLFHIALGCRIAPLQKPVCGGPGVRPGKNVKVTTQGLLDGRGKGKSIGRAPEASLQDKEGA
T3 sequence (P32121 whole entry partner): as the sequence (P32121 whole entry partner) above
Description: as §5, §6, §7, §8

CCR4 = molecular target: T4, CCR4 (Homo sapiens, UniProt P51679); experiment: Receptor-HIT BRET, β-arrestin2/Venus with RAGE/Rluc8 and CCR4; type: cell-based
T4 construct: expressed in transfected cells; host or cells: HEK293FT, transient
T4 sequence (P51679 whole entry): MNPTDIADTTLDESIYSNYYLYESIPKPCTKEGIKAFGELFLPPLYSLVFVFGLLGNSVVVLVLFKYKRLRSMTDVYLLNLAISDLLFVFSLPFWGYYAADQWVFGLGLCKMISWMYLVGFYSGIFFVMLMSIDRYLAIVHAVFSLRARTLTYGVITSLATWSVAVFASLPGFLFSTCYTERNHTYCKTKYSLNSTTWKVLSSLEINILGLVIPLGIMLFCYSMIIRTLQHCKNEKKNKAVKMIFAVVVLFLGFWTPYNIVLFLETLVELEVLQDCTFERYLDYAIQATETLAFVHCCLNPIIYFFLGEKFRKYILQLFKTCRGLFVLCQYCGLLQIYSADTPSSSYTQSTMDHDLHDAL
T4 sequence (P32121 whole entry partner): as the sequence (P32121 whole entry partner) above
Description: as §5, §6
Plasmids were transiently co-expressed in human embryonic kidney (HEK) 293FT cells and BRET measurements taken at 37° C. using a POLARstar Omega or LUMIstar plate reader (BMG Labtech, Mornington, Victoria, Australia) with 460-490 nm (‘donor emission’) and 520-550 nm (‘acceptor emission’) filters, or a VICTOR Light plate reader (Perkin Elmer, Glen Waverley, Victoria, Australia) with 400-475 nm (‘donor emission’) and 520-540 nm (‘acceptor emission’) filters, or a CLARIOstar plate reader (BMG Labtech, Mornington, Victoria, Australia) with 420-480 nm (‘donor emission’) and 520-620 nm (‘acceptor emission’) filters.
The BRET ratio was calculated by subtracting the ratio of ‘acceptor emission’ over ‘donor emission’ for a cell sample expressing Rluc8-tagged protein alone from the same ratio for a cell sample expressing both Rluc8 and Venus-tagged proteins. Alternatively, the ligand-induced BRET signal was calculated by subtracting the ratio of ‘acceptor emission’ over ‘donor emission’ for a vehicle-treated cell sample from the same ratio for a second aliquot of the same cells treated with agonist.
For BRET kinetic assays, the final pre-treatment reading is presented at the zero time point (time of ligand/vehicle addition). For the saturation assay, fluorescence after light excitation was measured on an EnVision 2102 multi-label plate reader (PerkinElmer, Glen Waverley, Victoria, Australia) using a 485/14 excitation filter, 535/25 emission filter and D505 mirror. […]

Molecule: Q379EEEEERAELNQ390 (QEEEEERAELNQ; listed as Homo sapiens) [RAGE379-390]
- inhibition of RAGE ligand-independent activation of wild-type RAGE by activated AT1R [1]: inhibiting
- inhibition of RAGE ligand-dependent activation of wild-type RAGE (S100A8/A9) [2]: inhibiting
- inhibition of Ang II-induced ICAM-1 (acting on wild type RAGE) (murine SVEC): does not result in a loss of function

Molecule: O=C(O)C[CH2][Ge](=[O])[O][Ge](=[O])[CH2]CC(=O)O [propagermanium, 3-[(2-Carboxyethyl-oxogermyl)oxy-oxogermyl]propanoic acid]
- inflammation (CCR2 [3]): suppress inflammation

Molecule: Thyrotrophin-releasing hormone [TRH]
- recruitment of βarrestin2/Venus to TRHR1/Rluc8 (TRH receptor 1 (TRHR1); control): recruitment
- recruitment of β-arrestin2/Venus proximal to RAGE/Rluc8 (TRH receptor 1 (TRHR1); in the presence of TRHR1): weak recruitment

Molecule: Orexin A (QPLPDCCRQKTCSCRLYELLHGAGNHAAGILTL; not fully specified (residue 1, C-terminus, bridges); cysteine pairing not given here; UniProt O43612 34-66, looked up) [OxA]
- recruitment of βarrestin2/Venus to OxR1/Rluc8 (orexin receptor 1 (OxR1); control): recruitment
- recruitment of β-arrestin2/Venus proximal to RAGE/Rluc8 (orexin receptor 1 (OxR1); in the presence of OxR1): recruitment

Molecule: RAGE370-404: N-truncated RAGE peptide without the charged patch Diaph1 binding domain (GEERKAPENQEEEEERAELNQSEEPEAGESSTGGP; UniProt Q15109 370-404, looked up, fragment)
- overcoming the inhibition of transactivation conferred by mCherry-S391A-RAGE362-404 (RAGE): able to overcome the inhibition

Molecule: RAGE385-390: N-truncated RAGE construct eliminating both 380 and 384 (RAELNQ; UniProt Q15109 385-390, looked up, fragment)
- inhibition of Ang II-induced ICAM-1 (acting on wild type RAGE) (murine SVEC): loss of the modulatory actions

Molecule: Cc1ccc2c(c1)C1(CCN(CCc3nc(-c4ccccc4)oc3C)CC1)OC(=O)N2 [RS-504393]
- inflammation (CCR2 [3]): suppress inflammation

Molecule: R366A-Q367A-RAGE362-404: mutated RAGE cytosolic tail peptide in which the charged patch is altered (LWQRAARRGEERKAPENQEEEEERAELNQSEEPEAGESSTGGP; cytosolic tail peptide; UniProt Q15109 362-404, looked up, variant R366A Q367A)
- overcoming the inhibition of transactivation conferred by mCherry-S391A-RAGE362-404 (RAGE): able to overcome the inhibition

Molecule: CCO[C@H]1CN(C2CCC(O)(c3ccc4c(c3)OCO4)CC2)C[C@@H]1NC(=O)CNC(=O)c1cccc(C(F)(F)F)c1 (stereo partly drawn) [INCB3344]
- inflammation (CCR2 [3]): suppress inflammation

Molecule: CCL2: monocyte chemotactic protein-1, cognate ligand of CCR2
- recruitment of βarrestin2/Venus to CCR2/Rluc8 (CCR2 [4]; control): recruitment
- recruitment of β-arrestin2/Venus proximal to RAGE/Rluc8 (CCR2 [4]; in the presence of CCR2): recruitment

B1: CCL22: chemokine ligand used to activate CCR4 (protein)
chain: GPYGANMEDSVCCRDYVRYRLPLRVVKHFYWTSDSCPRPGVVLLTFRDKEICADPRVPWVKMILNKLSQ
- recruitment of βarrestin2/Venus to CCR4/Rluc8 (CCR4; control): recruitment
- recruitment of β-arrestin2/Venus proximal to RAGE/Rluc8 (CCR4; in the presence of CCR4): not and Lack of
- BRET signal between Gαi/Nluc and Gγ2/Venus (CCR4; untagged CCR4 co-expressed): observed
